In ChEMBL document CHEMBL3779859, “Synergistic activity of a short lipidated antimicrobial peptide (lipoAMP) and colistin or tobramycin against Pseudomonas aeruginosa from cystic fibrosis patients” (Medchemcomm, 2016):
≈ marks a conversion by molar mass, not a printed value. Calls of active or inactive are those of the source. The rule behind the calls is not given here. Peptide text beside a SMILES is read from it. * marks the point of attachment. Decanoyl = CCCCCCCCCC(=O)*

Assays:
[1] = tested on: Pseudomonas aeruginosa; assay: Antibacterial activity against Pseudomonas aeruginosa Clone C clinical isolate assessed as inhibition of biofilm formation at 32 ug/ml after 18 to 22 hrs by crystal violet staining-based polystyrene microtiter plate reader method in absence of colistin; type: functional, organism-based
[2] = tested on: Pseudomonas aeruginosa; assay: Antibacterial activity against Pseudomonas aeruginosa KD491 clinical isolate assessed as inhibition of biofilm formation at 32 ug/ml after 18 to 22 hrs by crystal violet staining-based polystyrene microtiter plate reader method; type: functional
[3] = tested on: Pseudomonas aeruginosa; assay: Antibacterial activity against Pseudomonas aeruginosa Clone C clinical isolate assessed as inhibition of biofilm formation at 32 ug/ml after 18 to 22 hrs by crystal violet staining-based polystyrene microtiter plate reader method in presence of 2 ug/ml colistin; type: functional
[4] = tested on: Pseudomonas aeruginosa; assay: Antibacterial activity against Pseudomonas aeruginosa LESB58 clinical isolate assessed as growth inhibition at 32 ug/ml measured every 15 mins by microtiter plate reader method in presence of 1 ug/ml tobramycin; type: functional, organism-based
[5] = tested on: Pseudomonas aeruginosa; assay: Antibacterial activity against Pseudomonas aeruginosa MIDLANDS clinical isolate after 16 to 20 hrs by microdilution assay; type: functional
[6] = tested on: Pseudomonas aeruginosa; assay: Antibacterial activity against Pseudomonas aeruginosa KD491 clinical isolate assessed as inhibition of biofilm formation at 2 ug/ml after 18 to 22 hrs by crystal violet staining-based polystyrene microtiter plate reader method; type: functional
[7] = tested on: Pseudomonas aeruginosa; assay: Antibacterial activity against Pseudomonas aeruginosa LESB58 clinical isolate assessed as delay in growth at 4 to 32 ug/ml measured every 15 mins by microtiter plate reader method; type: functional, organism-based
[8] = tested on: Pseudomonas aeruginosa; assay: Antibacterial activity against Pseudomonas aeruginosa LES400 clinical isolate after 16 to 20 hrs by microdilution assay; type: functional
[9] = tested on: Pseudomonas aeruginosa; assay: Antibacterial activity against Pseudomonas aeruginosa VW1501 clinical isolate after 16 to 20 hrs by microdilution assay; type: functional
[10] = tested on: Pseudomonas aeruginosa; assay: Antibacterial activity against Pseudomonas aeruginosa PAO1 clinical isolate after 18 to 22 hrs by checkerboard method in presence of colistin; type: functional
[11] = tested on: Pseudomonas aeruginosa; assay: Antibacterial activity against Pseudomonas aeruginosa Clone C clinical isolate assessed as growth inhibition at 16 ug/ml measured every 15 mins by microtiter plate reader method in presence of […] ug/ml tobramycin; type: functional, organism-based
[12] = tested on: Pseudomonas aeruginosa; assay: Antibacterial activity against Pseudomonas aeruginosa Clone C clinical isolate assessed as delay in growth rate in exponential phase of bacterial growth curve at 8 to 16 ug/ml measured every 15 mins by microtiter plate reader method; type: functional, organism-based
[13] = tested on: Pseudomonas aeruginosa; assay: Antibacterial activity against Pseudomonas aeruginosa kl 1.1 clinical isolate after 16 to 20 hrs by microdilution assay; type: functional
[14] = tested on: Pseudomonas aeruginosa; assay: Antibacterial activity against Pseudomonas aeruginosa PAO1 clinical isolate assessed as delay in growth at 4 to 32 ug/ml measured every 15 mins by microtiter plate reader method; type: functional, organism-based
[15] = tested on: Pseudomonas aeruginosa; assay: Antibacterial activity against Pseudomonas aeruginosa VW1538 clinical isolate after 16 to 20 hrs by microdilution assay; type: functional
[16] = tested on: Pseudomonas aeruginosa; assay: Antibacterial activity against Pseudomonas aeruginosa kl 3.2 clinical isolate after 16 to 20 hrs by microdilution assay; type: functional
[17] = tested on: Pseudomonas aeruginosa; assay: Antibacterial activity against Pseudomonas aeruginosa VW1633 clinical isolate after 16 to 20 hrs by microdilution assay; type: functional
[18] = tested on: Pseudomonas aeruginosa; assay: Antibacterial activity against Pseudomonas aeruginosa KD491 clinical isolate assessed as delay in growth rate in exponential phase of bacterial growth curve at 4 to 8 ug/ml measured every 15 mins by microtiter plate reader method; type: functional, organism-based
[19] = tested on: Pseudomonas aeruginosa; assay: Antibacterial activity against Pseudomonas aeruginosa Clone C clinical isolate assessed as inhibition of biofilm formation at 8 ug/ml after 24 hrs by propidium iodide staining-based confocal laser microscopy; type: functional, organism-based
[20] = tested on: Pseudomonas aeruginosa; assay: Antibacterial activity against Pseudomonas aeruginosa PAO1 clinical isolate assessed as inhibition of biofilm formation at 32 ug/ml after 18 to 22 hrs by crystal violet staining-based polystyrene microtiter plate reader method in absence of colistin; type: functional, organism-based
[21] = tested on: Pseudomonas aeruginosa; assay: Antibacterial activity against Pseudomonas aeruginosa Clone C clinical isolate assessed as inhibition of biofilm formation at 128 ug/ml after 18 to 22 hrs by crystal violet staining-based polystyrene microtiter plate reader method; type: functional
[22] = tested on: Pseudomonas aeruginosa; assay: Antibacterial activity against Pseudomonas aeruginosa LES431 clinical isolate after 16 to 20 hrs by microdilution assay; type: functional

Question: Which inhibition [1] does the source give for `CCCCCCCCCC(=O)NCCCC[C@H](NC(=O)[C@H](Cc1c[nH]c2ccccc12)NC(=O)[C@H](CCCNC(=N)N)NC(=O)[C@H](Cc1c[nH]c2ccccc12)NC(=O)[C@H](CCCNC(=N)N)NC(=O)[C@H](Cc1c[nH]c2ccccc12)NC(=O)[C@@H](N)CCCNC(=N)N)C(=O)O` (H-RWRWRWK(Decanoyl)-OH) here?
Answer: inactive

Question: What about the inhibition at 32 µg/mL [2] of the same molecule?
Answer: 80%

Question: And the “inhibition (INH)” value [3]?
Answer: 70%

Question: What about the “growth inhibition (GI)” value [4] of the same molecule?
Answer: Active

Question: What about the MIC [5] of the same molecule?
Answer: 64 mg/L (≈ 48.2 µM)

Question: And the inhibition at 2 µg/mL [6]?
Answer: 45%

Question: And the Activity [7]?
Answer: Active

Question: What about the MIC [8] of the same molecule?
Answer: 64 mg/L (≈ 48.2 µM)

Question: What about the MIC [9] of the same molecule?
Answer: 128 mg/L (≈ 96.4 µM)

Question: And the “fractional inhibitory concentration index (FICI)” value [10]?
Answer: 0.3125

Question: And the “growth inhibition (GI)” value [11]?
Answer: Active

Question: And the Activity [12]?
Answer: Active

Question: And the MIC [13]?
Answer: 128 mg/L (≈ 96.4 µM)

Question: And the Activity [14]?
Answer: Active

Question: What about the MIC [15] of the same molecule?
Answer: 64 mg/L (≈ 48.2 µM)

Question: And the MIC [16]?
Answer: 128 mg/L (≈ 96.4 µM)

Question: And the MIC [17]?
Answer: 16 mg/L (≈ 12.1 µM)

Question: And the Activity [18]?
Answer: Active

Question: What about the inhibition [19] of the same molecule?
Answer: inactive

Question: And the inhibition [20]?
Answer: inactive

Question: What about the inhibition at 128 µg/mL [21] of the same molecule?
Answer: 82%

Question: What about the MIC [22] of the same molecule?
Answer: 32 mg/L (≈ 24.1 µM)
